Data from patent US9695102B2, “Alkali metal cinnamate powder and method for preparation” (Purac Biochem BV, priority 2009, dated 2017).

Tests used:
Assay type in all cases: physicochemical
[1] = Particle size distribution, Malvern Mastersizer 2000 laser diffraction; design: D (0.1) / D (0.5) / D (0.9) / D [3.2] / D [4.3]: unit not given here
Source text: Particle size distribution has been measured with a Malvern Mastersizer 2000® particle size analyzer Measurement. Measuring principle is based on laser diffraction.

[2] = Hausner ratio from tapped and aerated bulk density, Micron Powder Characteristics Tester; details: for Hausner Ratio: from tapped and aerated bulk density, flowability; for Tapped Bulk Density: tapped powder; for Aerated Bulk Density: untapped powder
Experimental: (§1) These are all standard measurements described in various text and hand books on powders and their properties. The various measurements were done using a Micron Powder Characteristics Tester™ (Model PT-N) from Hosokawa Micron International Inc.
(§2) The Hausner ratio is determined by measurement of the tapped and untapped (or aerated) bulk density. The angle of repose is determined by measurement of the angle of a cone of powder that is formed by pouring the powder through a glass funnel.

[3] = Angle of repose, Micron Powder Characteristics Tester
Experimental: as §1, §2

[4] = Angle of spatula, Micron Powder Characteristics Tester
Experimental: as §1
The angle of spatula is determined by measurement the difference in the angle of powder—that stays behind on a spatula when a container with said spatula on the bottom and filled with said powder is lowered and the spatula stays on the same height—and the angle of the powder on said spatula after the spatula was tapped by a weight.

[5] = Average moisture content of resulting powder; details: resulting powder after drying

Row | SMILES | D (0.1) [1] | D (0.5) [1] | D (0.9) [1] | D [3.2] [1] | D [4.3] [1] | Span (—) [1] | Carr class ([2]; Carr flowability scale based on compaction) | Hausner Ratio [2] | Tapped Bulk Density [2] [kg m^−3] | Aerated Bulk Density [2] [kg m^−3] | Angle of repose ([3]; cone of powder poured through glass funnel) | Angle of repose [index] ([3]; flowability index word) | Angle of spatula [index] ([4]; flowability index word) | Angle of spatula ([4]; powder on spatula before and after tapping) | average moisture content [5] | Hausner Ratio ([2]; listed as Commercially available potassium cinnamate)
1 | O=C([O-])C=Cc1ccccc1.[K+] [Potassium cinnamate of the present disclosure] | 114 | 192 | 320 | 178 | 206 | 1.07 | Good | 1.15 | 945 | 823 | 35.6 | good | normal | 48 | – | –
2 | O=C([O-])C=Cc1ccccc1.[K+] [Experiment 1, potassium cinnamate] | – | – | – | – | – | – | – | – | – | – | – | – | – | – | less than 2 wt % | –
3 | O=C([O-])C=Cc1ccccc1.[K+] [Experiment 2, potassium cinnamate] | – | – | – | – | – | – | – | – | – | – | – | – | – | – | about 0.5 wt % | –
4 | O=C([O-])C=Cc1ccccc1.[K+] [Potassium cinnamate commercially available] | 44 | 240 | 601 | 89 | 286 | 2.32 | – | 1.66 | 527 | 318 | – | – | – | – | – | about 1.66
